Assay results taken from patent US9540615B2, “Combined chemical and genetic approaches for generation of induced pluripotent stem cells” (The Scripps Research Institute, priority 2008, dated 2017).

Columns and labels:
Format in all cases: cell-based, mouse
[1] = test system: primary OG2 neural progenitor cells; test: iPS cell induction from neural progenitor cells by retroviral transduction and BIX01294 treatment
Method: The reporter neural progenitor cells were generated using a well established protocol by differentiating the Oct4-GiP mESCs grown in monolayer on gelatin in a chemically defined medium/CDM condition in the absence of serum and other growth factors/cytokines at low cell density for eight days, followed by neurophere formation and subsequent serial passaging in single cells in neural cell expansion media supplemented with 10 ng/ml of bFGF and EGF in monolayer for over six passages/24 days. The resulting neural progenitor cells were homogenous by cell morphology and neural marker expression, and were confirmed to be GFP negative and puromycin sensitive. Such neural progenitor cells plated in monolayer in conventional mESC growth media were transduced with combinations of four, three, or two of the four factors, followed by treating the transduced cells with individual small molecules from a small known drug collection in a typical 6-well format. The compound treatment and culture were continued for additional ten days before puromycin was added. The number of green and puro-resistant colonies was counted at day 14. In comparison to the only four-gene transduced neural cells as the positive control, compound conditions that generated more green colonies than the corresponding gene-only conditions were picked as primary hits. To further confirm these primary hit conditions, we chose to use a late passage of mouse CNS neural progenitor cells (Do, J. T. et al., Stem Cells 25, 1013-1020 (2007)) that were derived from fetal brain of OG2^+/−/ROSA26^+/− transgenic mice (which contain an Oct4-GFP reporter) and expanded in monolayer under the same neural CDM condition as the above with 10 ng/ml of bFGF and EGF. Such cells truly from a non-pluripotent tissue would be devoid of concerns of any contaminating ES cell in the above screening system, which is although highly unlikely with all appropriate controls. Similar culture conditions and reprogramming assays were performed using the OG2 neural progenitor cells except that puromycin was not used and green colonies were picked out and characterized by staining of Nanog, SSEA1 and ALP.
mESC-derived or primary OG2 mouse neural progenitor cells were plated into Matrigel (1:50, BD Biosciences) coated 6-well plates at 3.5×10^4 cells/well in the neural progenitor cell expansion media. After one day these cells were transduced with retrovirus for overnight, and the medium was changed into the mESC growth media [DMEM, 5% FBS, 10% KSR, 1× non-essential amino acids (Gibco), 2 mM L-glutamine (Gibco), 0.1 mM β-mercaptoethanol (Gibco) and 10^3 unit/ml LIF (Chemicon)] with or without BIX01294 (0.5-1 μM). GFP-positive iPS cell colonies appeared after 9-14 days, and were picked out and expanded on MEF feeder cells with the mESC growth media.

[2] = test system: OG2 MEFs transduced with OK (Oct4 and Klf4); test: iPSC generation from OK-transduced OG2 MEFs (GFP+ colonies), including second synergist screen with BIX; details: OK transduced OG2 MEFs; 3 independent experiments, standard deviation; OK alone 0.5±0.7
Method: Primary 129S2/SvPasCrlf (primary screen) or ROSA26^+/−/OG2^+/− (secondary screen) MEFs were plated onto Matrigel (1:50; BD Biosciences, Bedford, Mass.) coated dishes at a density of 3.5×10^4 cells per well of a 6-well plate. Twenty-four hours later, these cells were transduced overnight with defined retroviruses at 37° C., 5% CO2. Twelve to fourteen hours later, the media on the transduced cells was changed to mESC medium [Knockout DMEM, 10% ES-qualified FBS, 10% Knockout serum replacement, 1% Glutamax, 1% Non-essential amino acids, penicillin/streptomycin, 0.1 mM β-mercaptoethanol, 1% EmbryoMax ESC Qualified Nucleosides (Millipore, Temecula, Calif.), and 10^3 U/ml LIF (Millipore)] (all products were from Invitrogen, Carlsbad, Calif., except where mentioned). On that same day, individual small molecules from our known drug collection were added to the cells at a range between 0.5 and 2 μM. Compound treatment was continued for 10-14 days; the cells were fixed and stained on day 14-21 using a standard ALP detection kit (Millipore). For the second screen, 1 μM BIX was added to the mESC medium 1 day after transduction. Five days later, in addition to 1 μM BIX, individual small molecule from the known drug collection was added to each well, at a range between 0.5 and 2 μM. Mouse ESC media with defined small molecules was refreshed every three days until colonies with a similar morphology to mESCs were observed, which was usually between 14-21 days after transduction. […] Further characterization studies and repeats were carried either on primary 129S2/SvPasCrlf or ROSA26^+/−/OG2^+/− MEFs. When ROSA26^+/−/OG2^+/− MEFs were used, the iPSC colonies could also be identified through GFP expression, as a marker of Oct4 expression. Once iPSC colonies were identified, they were picked for expansion on MEF feeder cells in mESC medium.

mES R1 cells = test: Proliferation assay; details: 2 μM BayK, 1 μM BIX or both; 15, 24 and 48 hours; compared to DMSO, n=3
Method: mES R1 cells were plated onto gelatin-coated 6-well plates at a density of 2×10^5 cells/well in complete mES cell media. Upon cell attachment, app. 12 hours, the cells were treated either with DMSO, 1 μM BIX, 2 μM BayK, and a combination of both, in triplicate. At 15, 24 and 48 hours, the cells were detached using trypsin, and counted using a hemocytometer. Trypan blue (Sigma-Aldrich, St. Louis, Mo.) was used for dead cell exclusion.

COc1cc2nc(N3CCCN(C)CC3)nc(NC3CCN(Cc4ccccc4)CC3)c2cc1OC [BIX01294] was tested, and the reprogramming efficiency ([1]; Klf4/Sox2/cMyc with BIX01294, absence of Oct4 expression) was “relatively low”, the kinetics of reprogramming ([1]; Oct4/Klf4 viral transduction, BIX01294 0.5-1 μM) was “didn't significantly shorten the kinetics of reprogramming” and the “reprogramming efficiency (GFP+ iPS cell colonies)” value ([1]; Oct4/Klf4 viral transduction, BIX01294 0.5-1 μM, 3.5×10^4 cells/well) was “significantly improve the reprogramming efficiency to or higher than the level of using viral transduction of all four factors”. The “time until GFP+ iPS cell colonies appeared” value ([1]; after transduction with Oct4/Klf4 retroviruses and BIX01294 treatment) was 12 days, the “generation of iPS cells” value ([1]; viral transduction of Klf4, Sox2 and cMyc, absence of Oct4 expression, three factors alone gave no colony) was “can also generate iPS cells” and the “number of GFP+ colonies (reprogramming efficiency)” value [2] was 2.5±0.7 colonies per 3.5×10^4 cells. The “proliferation of mES cells (cell number)” value (mES R1 cells) was “No significant difference”.
